Experimental data as given in patent US8436031B2 (priority 2004, dated 2013).

Target: MarA (Escherichia coli, UniProt P0ACH5)
Test: Selective marker (ccdB) under MarA-activated promoter; cell survival under MarA expression (Example 2)
Format: cell-based
Set-up: key: *: good inhibition of MarA; **: very good inhibition of MarA
Conditions: inhibition of MarA; cell survival under conditions of MarA expression
Description: In this example, the expression of a selective marker (e.g., ccdB) is put under the direct control of a promoter activated by MarA (e.g., inaA, galT, or micF). In the absence of MarA, the expression of the selective marker is silent and cells survive. Synthesis of MarA from an inducible plasmid in a bacterial or yeast cell leads to the activation of the inaA promoter, expression of ccdB, and subsequently results in cell death. Compounds that inhibit MarA are those that permit cell survival under conditions of MarA expression. In Table 4, * indicates good inhibition of MarA and ** indicates very good inhibition of MarA.

MarA, sequence (P0ACH5 whole entry, looked up): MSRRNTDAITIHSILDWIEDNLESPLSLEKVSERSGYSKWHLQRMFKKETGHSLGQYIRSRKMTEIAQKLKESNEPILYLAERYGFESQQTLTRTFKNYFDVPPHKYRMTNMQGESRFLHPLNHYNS

SMILES | MarA inhibition score (cell survival)
CN(C)c1ccc(-c2cc(=O)c3ccccc3o2)cc1 [AW, 2-[4-(dimethylamino)phenyl]-4H-chromen-4-one] | **
O=[N+]([O-])c1ccc2nc(-c3ccccc3)n(OCc3ccccc3)c2c1 [AI, 1-Benzyloxy-6-nitro-2-phenyl-1H-benzoimidazole] | **
N#Cc1c(-c2ccc3c(c2)OCO3)c(C#N)c2nc3ccccc3n2c1N [AB, 1-Amino-3-benzo[1,3]dioxol-5-yl-benzo[4,5]imidazo[1,2-a]pyridine-2,4-dicarbonitrile] | **
O=[N+]([O-])c1ccc2nc(-c3ccccc3)n(OCc3cccc(C(F)(F)F)c3)c2c1 [AG, 6-Nitro-2-phenyl-1-(3-trifluoromethyl-benzyloxy)-1H-benzoimidazole] | **
C=CCOc1ccc(C2Nc3ccccc3-c3nnc(SCCCC)nc3O2)cc1 (centres unmarked) [I, 6-(4-Allyloxy-phenyl)-3-butylsulfanyl-6,7-dihydro-5-oxa-1,2,4,7-tetraaza-dibenzo[a,c]cycloheptene] | **
c1ccc(COn2c(-c3ccccc3)nc3ncccc32)cc1 [AX, 1-(benzyloxy)-2-phenyl-1H-imidazo[4,5-b]pyridine] | **
O=c1/c(=C/c2cn(-c3ccccc3)nc2-c2ccc(F)cc2)sc2nc3ccccc3n12 [AM, 2-[3-(4-Fluoro-phenyl)-1-phenyl-1H-pyrazol-4-ylmethylene]-benzo[4,5]imidazo[2,1-b]thiazol-3-one] | **
CCOC(=O)C1=C(C)N=c2sc(=Cc3ccc(-c4ccc([N+](=O)[O-])cc4C)o3)c(=O)n2C1c1ccc2c(c1)OCO2 (centres unmarked) [P, 5-Benzo[1,3]dioxol-5-yl-7-methyl-2-[5-(2-methyl-4-nitro-phenyl)-furan-2-ylmethylene]-3-oxo-2,3-dihydro-5H-thiazolo[3,2-a]pyrimidine-6-carboxylic acid ethyl ester] | *
Cc1ccc(COn2c(-c3ccccc3)nc3ccc([N+](=O)[O-])cc32)cc1 [AJ, 1-(4-Methyl-benzyloxy)-6-nitro-2-phenyl-1H-benzoimidazole] | *
O=c1cc(-c2ccccc2)oc2ccc(F)cc12 [AZ, 6-fluoro-2-phenyl-4H-chromen-4-one] | **
CCSc1nnc2c(n1)OC(c1ccc(O)c(O)c1)Nc1ccccc1-2 (centres unmarked) [E, 4-(3-Ethylsulfanyl-6,7-dihydro-5-oxa-1,2,4,7-tetraaza-dibenzo[a,c]cyclo-hepten-6-yl)-benzene-1,2-diol] | *
CCCSc1nnc2c(n1)OC(c1ccc(OC)cc1)Nc1ccccc1-2 (centres unmarked) [K, 6-(4-Methoxy-phenyl)-3-propylsulfanyl-6,7-dihydro-5-oxa-1,2,4,7-tetraaza-dibenzo[a,c]cycloheptene] | *
COn1c(-c2ccc(C)cc2)nc2ncccc21 [BF, 1-methoxy-2-(4-methylphenyl)-1H-imidazo[4,5-b]pyridine] | *
CSc1nnc2c(n1)OC(c1ccc(-c3ccc([N+](=O)[O-])cc3)o1)Nc1ccccc1-2 (centres unmarked) [D, 3-Methylsulfanyl-6-[5-(4-nitro-phenyl)-furan-2-yl]-6,7-dihydro-5-oxa-1,2,4,7-tetraaza-dibenzo[a,c]cycloheptene] | *
O=c1/c(=C/c2c[nH]nc2-c2ccccc2)sc2nc3ccccc3n12 [M, 2-(3-Phenyl-1H-pyrazol-4-ylmethylene)-benzo[4,5]imidazo[2,1-b]thiazol-3-one] | **
COc1ccc2c(=O)cc(-c3ccccc3)oc2c1 [BA, 7-methoxy-2-phenyl-4H-chromen-4-one] | *
CCCSc1nnc2c(n1)OC(c1ccc(OCc3ccccc3)cc1)Nc1ccccc1-2 (centres unmarked) [F, 6-(4-Benzyloxy-phenyl)-3-propylsulfanyl-6,7-dihydro-5-oxa-1,2,4,7-tetraaza-dibenzo[a,c]cycloheptene] | **
COC(=O)c1ccccc1NC(=O)CSc1nnc(-c2ccco2)n1-c1ccccc1 [AC, 2-[2-(5-Furan-2-yl-4-phenyl-4H-[1,2,4]triazol-3-ylsulfanyl)-acetylamino]-benzoic acid methyl ester] | *
CCCCSc1nnc2c(n1)OC(c1ccc(OC)cc1OC)Nc1ccccc1-2 (centres unmarked) [H, 3-Butylsulfanyl-6-(2,4-dimethoxy-phenyl)-6,7-dihydro-5-oxa-1,2,4,7-tetraaza-dibenzo[a,c]cycloheptene] | *

SMILES | MarA inhibition score (cell survival)
CSc1cccc(NC(=O)CSc2nnc(-c3ccc4nonc4c3)n2C)c1 [AE, 2-(5-Benzo[1,2,5]oxadiazol-5-yl-4-methyl-4H-[1,2,4]triazol-3-ylsulfanyl)-N-(3-methylsulfanyl-phenyl)-acetamide] | *
O=C(O)COn1c(-c2ccccc2)nc2ccc([N+](=O)[O-])cc21 [BD, 2-[(6-nitro-2-phenyl-1H-1,3-benzimidazol-1-yl)oxy]acetic acid] | *
CCOC(=O)C1=C(C)N=c2s/c(=C/c3ccc(-c4cccc(C(F)(F)F)c4)o3)c(=O)n2C1c1ccccc1 (centres unmarked) [U, 7-Methyl-3-oxo-5-phenyl-2-[5-(3-trifluoromethyl-phenyl)-furan-2-ylmethylene]-2,3-dihydro-5H-thiazolo[3,2-a]pyrimidine-6-carboxylic acid ethyl ester] | **
CCCCSc1nnc2c(n1)OC(c1ccc(OCC)cc1)Nc1ccccc1-2 (centres unmarked) [J, 3-Butylsulfanyl-6-(4-ethoxy-phenyl)-6,7-dihydro-5-oxa-1,2,4,7-tetraaza-dibenzo[a,c]cycloheptene] | *
CCOC(=O)C1=C(C)N=c2s/c(=C\c3ccc(-c4cccc(C(=O)O)c4)o3)c(=O)n2C1c1c(OC)ccc2ccccc12 (centres unmarked) [N, 2-[5-(3-Carboxy-phenyl)-furan-2-ylmethylene]-5-(2-methoxy-naphthalen-1-yl)-7-methyl-3-oxo-2,3-dihydro-5H-thiazolo[3,2-a]pyrimidine-6-carboxylic acid ethyl ester] | **
Cc1ccc(-c2nc3c(=O)n(-c4ccccc4)c4c(c(=O)n(C)c(=O)n4C)c3o2)cc1 [AL, 6,8-Dimethyl-5-phenyl-2-p-tolyl-5H,6H-1-oxa-3,5,6,8-tetraaza-cyclopenta[a]naphthalene-4,7,9-trione] | *
CCOC(=O)C(C(N)=O)C1(O)OC(c2ccc(C)cc2)=CC1=O (centres unmarked) [BC, 2-(2-Hydroxy-3-oxo-5-p-tolyl-2,3-dihydro-furan-2-yl)-malonamic acid ethyl ester] | *
O=c1cc(-c2ccc(O)cc2)oc2ccccc12 [BG, 2-(4-hydroxyphenyl)-4H-chromen-4-one] | *
CSc1nnc2c(n1)OC(c1ccc(I)o1)Nc1ccccc1-2 (centres unmarked) [A, 6-(5-Iodo-furan-2-yl)-3-methylsulfanyl-6,7-dihydro-5-oxa-1,2,4,7-tetraaza-dibenzo[a,c]cycloheptene] | **
CCOC(=O)C1=C(C)N=c2s/c(=C/c3ccc(-c4ccc(C)c([N+](=O)[O-])c4)o3)c(=O)n2C1c1ccc(N(C)C)cc1 (centres unmarked) [X, 5-(4-Dimethylamino-phenyl)-7-methyl-2-[5-(4-methyl-3-nitro-phenyl)-furan-2-ylmethylene]-3-oxo-2,3-dihydro-5H-thiazolo[3,2-a]pyrimidine-6-carboxylic acid ethyl ester] | **
O=C(O)COn1c(-c2ccccc2)nc2ccc([N+](=O)[O-])cc21 [AH, (6-Nitro-2-phenyl-benzoimidazol-1-yloxy)-acetic acid] | **
CSc1nnc2c(n1)OC(c1ccc([N+](=O)[O-])o1)Nc1ccccc1-2 (centres unmarked) [C, 3-Methylsulfanyl-6-(5-nitro-furan-2-yl)-6,7-dihydro-5-oxa-1,2,4,7-tetraaza-dibenzo[a,c]cycloheptene] | *
O=c1cc(-c2ccc(F)cc2)oc2ccccc12 [BE, 2-(4-fluorophenyl)-4H-chromen-4-one] | *
CCOc1ccc(C2Nc3ccccc3-c3nnc(SC)nc3O2)cc1 (centres unmarked) [B, 6-(4-Ethoxy-phenyl)-3-methylsulfanyl-6,7-dihydro-5-oxa-1,2,4,7-tetraaza-dibenzo[a,c]cycloheptene] | *
O=C1C=Cc2ccccc2/C1=N\Oc1ccc2noc3c2c1C(=O)c1ccccc1-3 [Z, [1,2]Naphthoquinone 1-[O-(6-oxo-6H-anthra[1,9-cd]isoxazol-5-yl)-oxime]] | *
CCOC(=O)C1=C(C)N=c2s/c(=C\c3ccc(-c4cccc(C(=O)O)c4)o3)c(=O)n2C1c1ccc(N(C)C)cc1 (centres unmarked) [W, 2-[5-(3-Carboxy-phenyl)-furan-2-ylmethylene]-5-(4-dimethylamino-phenyl)-7-methyl-3-oxo-2,3-dihydro-5H-thiazolo[3,2-a]pyrimidine-6-carboxylic acid ethyl ester] | **
Cn1c(=O)c2c3oc(-c4ccc([N+](=O)[O-])cc4)nc3c(=O)n(-c3ccccc3)c2n(C)c1=O [AK, 6,8-Dimethyl-2-(4-nitro-phenyl)-5-phenyl-5H,6H-1-oxa-3,5,6,8-tetraaza-cyclopenta[a]naphthalene-4,7,9-trione] | **
C=Cc1nc2s/c(=C\c3cn(-c4ccccc4)nc3-c3ccc(F)cc3)c(=O)n2c1C [AO, 2-[3-(4-Fluoro-phenyl)-1-phenyl-1H-pyrazol-4-ylmethylene]-5-methyl-6-vinyl-imidazo[2,1-b]thiazol-3-one] | **
O=C1C(=C2NC(c3ccccn3)C3C(=O)N(c4ccccc4)C(=O)C23)C(=O)c2ccccc21 (centres unmarked) [AF, 4-(1,3-Dioxo-indan-2-ylidene)-2-phenyl-6-pyridin-2-yl-tetrahydro-pyrrolo[3,4-c]pyrrole-1,3-dione] | **
